Source: patent publication US10760130B2, “Predictive biomarker for hypoxia-activated prodrug therapy” (MOLECULAR TEMPLATES, INC., priority 2014, dated 2020)

Tests used:
[1] = system: locally advanced or metastatic pancreatic cancer; test: TH-CR-404 Phase II clinical trial in pancreatic cancer (NCT01144455); type: in vivo, human
Experimental: In the TH-CR-404 Phase II clinical trial in pancreatic cancer (NCT01144455), pancreatic cancer patients with locally advanced or metastatic disease were randomized in three study arms to receive Gemcitabine (Gem) therapy or the combination of Gemcitabine with one of 2 dose levels of TH-302. TH-302 was administered either at 240 or 340 mg/m^2 by intravenous infusion. A total of 214 patients were enrolled (Gemcitabine arm, n=69; Gemcitabine+TH-302 240 mg/m^2, n=71; Gemcitabine+TH-302 340 mg/m^2, n=74).
To search for potentially predictive serum biomarkers of the clinical benefit derived from TH-302 hypoxia-activated therapy, an initial search of candidate biomarkers was conducted from the trial pre-treatment serum samples using a multiplexed bead-based immunoassay (AssayGate, Inc., Ijamsville, Md.). When measuring serum samples for ENO1 and ENO2 protein levels by means of this bead-based, suspension immunoassay format for ENO1, the limit of detection of the assay was 1.8 ng/ml. For ENO2, the assay sensitivity was 1.2 ng/ml.
Following the identification of ENO2 as a potentially predictive biomarker for the clinical benefit derived from TH-302, the levels of ENO1 were tested in the same patient serum samples (Harris A L, 2002, Nat Rev Cancer 2: 38-47; Semenza G L, 2003, Nat Rev Cancer 3: 721-732). High levels of ENO1 were associated with improved PFS and OS in Gemcitabine+TH-302 340 mg/m^2 patient samples in this trial (FIG. 2). These associations were shown using the ENO1 cut-off value of the assay sensitivity limit (1.8 ng/ml) (FIGS. 2A and 2B).

[2] = system: locally advanced or metastatic pancreatic cancer; settings: cited from earlier work
[3] = system: panel of 11 cancer cell-line derived models; settings: tumor xenografts, variety of tumor types; cited from earlier work

With `Cn1c(COP(=O)(NCCBr)NCCBr)cnc1[N+](=O)[O-]` [TH-302, (2-bromoethyl)({[(2-bromoethyl)amino][(2-nitro-3-methylimidazol-4-yl)methoxy]phosphoryl})amine] the “difference between treatment groups of median PFS time among patients with high ENO2” value ([1]; Gem vs Gem+TH-302 340 mg/m^2, ENO2 median cut-off 20.3913 ng/ml, FIG. 1A) was “more pronounced”, the “difference between treatment groups of median OS time among patients with high ENO2” value ([1]; Gem vs Gem+TH-302 340 mg/m^2, ENO2 median cut-off 20.3913 ng/ml, FIG. 1B) was “more pronounced” and the “OS in patients with high serum ENO1 levels” value ([1]; Gemcitabine+TH-302 340 mg/m^2, ENO1 cut-off 1.8 ng/ml (more pronounced at 2.3 and 3.2 ng/ml), FIG. 2B-2D) was “improved”. For the same compound, the “PFS in patients with high serum ENO1 levels” value ([1]; Gemcitabine+TH-302 340 mg/m^2, ENO1 cut-off 1.8 ng/ml, FIG. 2A) was “improved”, the “progression free survival (PFS) hazard ratio (HR)” value ([2]; Gemcitabine+TH-302 340 mg/m^2 (high-dose group) vs Gemcitabine alone, intravenous infusion, p=0.008) was 0.58 and the “primary endpoint: progression free survival (PFS)” value ([2]; Gemcitabine+TH-302 groups (240 or 340 mg/m^2) compared to Gemcitabine alone) was “improved progression free survival”. The “monotherapy efficacy (tumor growth delay)” value [3] was “modest”.
